According to patent US9453026B2, “ACC inhibitors and uses thereof” (Gilead Apollo, Inc., priority 2011, dated 2016):

Target: ACC2 (Homo sapiens, UniProt O00763)
Assay: In vitro ACC2 inhibition assay (ADP-Glo)
Assay type: biochemical
Conditions: read-out: ACC2
Experimental: An exemplary procedure for the in vitro ACC inhibition assay, which can be used to determine the inhibitory action of compounds of the invention toward either ACC1 or ACC2, follows. The ADP-Glo™ Kinase Assay kit from Promega was used. The ADP-Glo™ Kinase Assay is a luminescent ADP detection assay to measure enzymatic activity by quantifying the amount of ADP produced during an enzyme reaction. The assay is performed in two steps; first, after the enzyme reaction, an equal volume of ADP-Glo™ Reagent is added to terminate the reaction and deplete the remaining ATP. Second, the Kinase Detection Reagent is added to simultaneously convert ADP to ATP and allow the newly synthesized ATP to be measured using a luciferase/luciferin reaction. Luminescence can be correlated to ADP concentrations by using an ATP-to-ADP conversion curve. The detailed procedure is as follows. 50 μL of the compound being tested (600 uM in DMSO) was added to a 384-well dilution plate. The compound was diluted 1:3 in succession in DMSO for each row for 11 wells. 0.5 μL ACC2 working solution was added to 384-well white Optiplate assay plate. 0.5 μL diluted compound solution in each column from step 2 to assay plate, each row containing 2 replicates. […] The plates were incubated at room temperature for 15 minutes. 5 μL substrate working solution was added to each well to initiate reaction. […] Plates were incubated at room temperature for 60 minutes. 10 μL ADP glo reagent was added. Plates were incubated at room temperature for 40 minutes. 20 μL kinase detection reagent was added.
Data for each concentration, as well as the positive and negative controls were averaged, and the standard deviation calculated. Percent inhibition was calculated by the formula: 100× (average negative control−compound)/(average negative control−average positive control). The IC50 for each compound was calculated by fitting the data with a non-linear regression equation: Y=Bottom+(Top-Bottom)/(1+10^((Log IC50−X)*HillSlope)), where X is the log of compound concentration and Y is percent inhibition.
The compound numbers correspond to the compound numbers in Table 1.

ACC2, sequence (O00763 whole entry, species assumed): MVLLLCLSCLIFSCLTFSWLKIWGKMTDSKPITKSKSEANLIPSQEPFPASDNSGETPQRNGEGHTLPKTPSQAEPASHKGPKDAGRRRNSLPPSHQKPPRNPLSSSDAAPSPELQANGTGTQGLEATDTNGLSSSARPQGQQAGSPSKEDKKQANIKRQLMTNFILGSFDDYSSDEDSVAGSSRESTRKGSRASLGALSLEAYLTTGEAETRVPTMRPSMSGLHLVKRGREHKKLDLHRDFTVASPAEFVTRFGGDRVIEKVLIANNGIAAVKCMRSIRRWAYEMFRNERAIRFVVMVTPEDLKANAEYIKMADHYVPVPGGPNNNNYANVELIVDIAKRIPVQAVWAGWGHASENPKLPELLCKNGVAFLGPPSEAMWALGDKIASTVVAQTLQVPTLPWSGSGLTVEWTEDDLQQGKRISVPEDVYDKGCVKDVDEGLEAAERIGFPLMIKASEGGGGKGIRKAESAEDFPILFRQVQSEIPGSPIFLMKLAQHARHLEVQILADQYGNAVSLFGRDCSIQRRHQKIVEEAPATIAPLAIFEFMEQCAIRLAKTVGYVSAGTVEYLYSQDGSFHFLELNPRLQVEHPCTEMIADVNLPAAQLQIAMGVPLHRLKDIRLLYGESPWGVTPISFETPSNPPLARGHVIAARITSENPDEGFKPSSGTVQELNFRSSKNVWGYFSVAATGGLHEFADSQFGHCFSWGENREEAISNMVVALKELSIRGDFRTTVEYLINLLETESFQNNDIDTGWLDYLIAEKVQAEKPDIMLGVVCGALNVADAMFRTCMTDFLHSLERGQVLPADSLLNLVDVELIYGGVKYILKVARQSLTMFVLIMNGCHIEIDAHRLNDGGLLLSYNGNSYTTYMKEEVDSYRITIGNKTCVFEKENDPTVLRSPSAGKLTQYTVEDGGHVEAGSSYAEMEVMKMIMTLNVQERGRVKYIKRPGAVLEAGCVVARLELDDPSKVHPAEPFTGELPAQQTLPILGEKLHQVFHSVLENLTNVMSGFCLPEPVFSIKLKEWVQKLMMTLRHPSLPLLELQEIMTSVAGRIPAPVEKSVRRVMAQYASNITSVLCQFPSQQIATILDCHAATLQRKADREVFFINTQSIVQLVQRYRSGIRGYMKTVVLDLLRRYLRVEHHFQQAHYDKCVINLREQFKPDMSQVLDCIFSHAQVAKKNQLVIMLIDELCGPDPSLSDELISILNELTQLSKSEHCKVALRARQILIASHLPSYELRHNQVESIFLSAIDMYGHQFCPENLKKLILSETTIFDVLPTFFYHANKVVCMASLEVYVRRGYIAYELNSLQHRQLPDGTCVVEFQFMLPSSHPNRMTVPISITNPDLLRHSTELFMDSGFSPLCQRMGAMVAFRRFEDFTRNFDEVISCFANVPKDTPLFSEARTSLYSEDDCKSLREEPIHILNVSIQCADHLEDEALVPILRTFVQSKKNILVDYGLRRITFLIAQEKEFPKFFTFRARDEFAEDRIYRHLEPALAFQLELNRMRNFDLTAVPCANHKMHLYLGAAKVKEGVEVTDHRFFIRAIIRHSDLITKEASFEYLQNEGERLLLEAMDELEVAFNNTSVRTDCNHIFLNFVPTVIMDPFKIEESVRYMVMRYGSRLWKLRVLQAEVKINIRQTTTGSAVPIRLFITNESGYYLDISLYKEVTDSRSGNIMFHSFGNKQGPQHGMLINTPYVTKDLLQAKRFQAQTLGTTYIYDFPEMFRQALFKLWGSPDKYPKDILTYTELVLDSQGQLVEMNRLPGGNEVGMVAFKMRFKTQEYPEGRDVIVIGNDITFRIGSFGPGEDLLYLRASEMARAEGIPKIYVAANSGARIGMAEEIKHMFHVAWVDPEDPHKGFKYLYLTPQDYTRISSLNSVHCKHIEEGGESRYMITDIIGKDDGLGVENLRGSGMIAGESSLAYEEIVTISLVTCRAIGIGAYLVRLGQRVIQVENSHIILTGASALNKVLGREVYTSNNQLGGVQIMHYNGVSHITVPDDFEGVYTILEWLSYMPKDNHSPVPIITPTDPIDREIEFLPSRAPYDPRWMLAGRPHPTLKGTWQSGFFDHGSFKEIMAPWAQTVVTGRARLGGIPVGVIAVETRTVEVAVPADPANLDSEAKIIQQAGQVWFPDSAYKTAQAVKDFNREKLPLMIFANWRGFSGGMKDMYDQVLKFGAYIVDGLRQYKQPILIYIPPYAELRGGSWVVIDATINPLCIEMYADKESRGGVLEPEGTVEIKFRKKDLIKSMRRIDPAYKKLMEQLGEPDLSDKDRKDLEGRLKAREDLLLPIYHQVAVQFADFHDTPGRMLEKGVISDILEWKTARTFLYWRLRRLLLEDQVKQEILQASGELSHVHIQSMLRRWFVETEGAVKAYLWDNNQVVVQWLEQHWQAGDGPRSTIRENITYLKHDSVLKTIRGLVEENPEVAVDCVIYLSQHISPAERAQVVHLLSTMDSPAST

## Cc1c(C2=NCCO2)sc2c1c(=O)n(CC(=O)O)c(=O)n2CCc1ccccc1 [I-87, 2-[6-(4,5-dihydro-1,3-oxazol-2-yl)-5-methyl-2,4-dioxo-1-(2-phenylethyl)-1H,2H,3H,4H-thieno[2,3-d]pyrimidin-3-yl]acetic acid]
  IC50: < 5 µM

## CCOC(=O)c1sc2c(c1C)c(=O)n(CC(=O)O)c(=O)n2Cc1cc2ccccc2[nH]1 [I-88, 2-[6-(ethoxycarbonyl)-1-(1H-indol-2-ylmethyl)-5-methyl-2,4-dioxo-1H,2H,3H,4H-thieno[2,3-d]pyrimidin-3-yl]acetic acid]
  IC50: > 50 µM

## CCOC(=O)c1sc2c(c1C)c(=O)n(CC(=O)O)c(=O)n2Cc1ccc2[nH]ccc2c1 [I-90, 2-[6-(ethoxycarbonyl)-1-(1H-indol-5-ylmethyl)-5-methyl-2,4-dioxo-1H,2H,3H,4H-thieno[2,3-d]pyrimidin-3-yl]acetic acid]
  IC50: 20 to 50 µM

## CCOC(=O)c1cc2c(=O)n(CC(=O)O)c(=O)n(CCc3ccccc3)c2s1 [I-91, 2-[6-(ethoxycarbonyl)-2,4-dioxo-1-(2-phenylethyl)-1H,2H,3H,4H-thieno[2,3-d]pyrimidin-3-yl]acetic acid]
  IC50: 5 to 20 µM

## Cc1c(-c2ncco2)sc2c1c(=O)n(CC(=O)O)c(=O)n2CCc1ccccc1 [I-92, 2-[5-methyl-6-(1,3-oxazol-2-yl)-2,4-dioxo-1-(2-phenylethyl)-1H,2H,3H,4H-thieno[2,3-d]pyrimidin-3-yl]acetic acid]
  IC50: < 5 µM

## CCOC(=O)c1sc2c(c1C(F)(F)F)c(=O)n(CC(=O)O)c(=O)n2CCc1ccccc1 [I-94, 2-[6-(ethoxycarbonyl)-2,4-dioxo-1-(2-phenylethyl)-5-(trifluoromethyl)-1H,2H,3H,4H-thieno[2,3-d]pyrimidin-3-yl]acetic acid]
  IC50: < 5 µM

## CCOC(=O)c1sc2c(c1C)c(=O)n(C(C)(C)C(=O)O)c(=O)n2CCc1ccc(I)cc1 [I-95, 2-[6-(ethoxycarbonyl)-1-[2-(4-iodophenyl)ethyl]-5-methyl-2,4-dioxo-1H,2H,3H,4H-thieno[2,3-d]pyrimidin-3-yl]-2-methylpropanoic acid]
  IC50: 20 to 50 µM

## CCOC(=O)c1sc2c(c1C)c(=O)n(C(C)(C)C(=O)O)c(=O)n2CCc1ccccc1O [I-99, 2-[6-(ethoxycarbonyl)-1-[2-(2-hydroxyphenyl)ethyl]-5-methyl-2,4-dioxo-1H,2H,3H,4H-thieno[2,3-d]pyrimidin-3-yl]-2-methylpropanoic acid]
  IC50: < 5 µM

## CCOC(=O)c1sc2c(c1C)c(=O)n(CC(=O)O)c(=O)n2CC(OC(=O)COC)c1ccccc1 (stereo not drawn) [I-101, 2-[6-(ethoxycarbonyl)-1-[2-[(2-methoxyacetyl)oxy]-2-phenylethyl]-5-methyl-2,4-dioxo-1H,2H,3H,4H-thieno[2,3-d]pyrimidin-3-yl]acetic acid]
  IC50: 5 to 20 µM

## CCOC(=O)c1sc2c(c1C)c(=O)n(C(C)(C)C(=O)O)c(=O)n2C[C@@H](O)c1ccccc1 [I-102, 2-[6-(ethoxycarbonyl)-1-[(2S)-2-hydroxy-2-phenylethyl]-5-methyl-2,4-dioxo-1H,2H,3H,4H-thieno[2,3-d]pyrimidin-3-yl]-2-methylpropanoic acid]
  IC50: 5 to 20 µM

## CCOC(=O)c1sc2c(c1C)c(=O)n(CC(=O)O)c(=O)n2C[C@@H](OC)c1ccccc1 [I-104, 2-[6-(ethoxycarbonyl)-1-[(2S)-2-methoxy-2-phenylethyl]-5-methyl-2,4-dioxo-1H,2H,3H,4H-thieno[2,3-d]pyrimidin-3-yl]acetic acid]
  IC50: 20 to 50 µM

## CCOC(=O)c1sc2c(c1C)c(=O)n(C(C)(C)C(=O)O)c(=O)n2CCc1ccccc1OC(F)(F)F [I-106, 2-[6-(ethoxycarbonyl)-5-methyl-2,4-dioxo-1-[2-[2-(trifluoromethoxy)phenyl]ethyl]-1H,2H,3H,4H-thieno[2,3-d]pyrimidin-3-yl]-2-methylpropanoic acid]
  IC50: < 5 µM

## CCOC(=O)c1sc2c(c1C)c(=O)n(C(C)(C)C(N)=O)c(=O)n2CCc1ccccc1 [I-107, ethyl 3-(1-carbamoyl-1-methylethyl)-5-methyl-2,4-dioxo-1-(2-phenylethyl)-1H,2H,3H,4H-thieno[2,3-d]pyrimidine-6-carboxylate]
  IC50: < 5 µM

## CCOC(=O)c1sc2c(c1C)c(=O)n(C(C)(C)C(=O)O)c(=O)n2C[C@@H](OC(C)C)c1ccccc1 [I-109, 2-[6-(ethoxycarbonyl)-5-methyl-2,4-dioxo-1-[(2S)-2-phenyl-2-(propan-2-yloxy)ethyl]-1H,2H,3H,4H-thieno[2,3-d]pyrimidin-3-yl]-2-methylpropanoic acid]
  IC50: 5 to 20 µM

## CCOC(=O)c1sc2c(c1C)c(=O)n(C(C)(C)C(=O)O)c(=O)n2C[C@@H](OC)c1ccccc1 [I-111, 2-[6-(ethoxycarbonyl)-1-[(2S)-2-methoxy-2-phenylethyl]-5-methyl-2,4-dioxo-1H,2H,3H,4H-thieno[2,3-d]pyrimidin-3-yl]-2-methylpropanoic acid]
  IC50: 5 to 20 µM

## CCOC(=O)c1sc2c(c1C)c(=O)n(CC(N)=O)c(=O)n2C[C@@H](OC(C)C)c1ccccc1 [I-113, ethyl 3-(carbamoylmethyl)-5-methyl-2,4-dioxo-1-[(2S)-2-phenyl-2-(propan-2-yloxy)ethyl]-1H,2H,3H,4H-thieno[2,3-d]pyrimidine-6-carboxylate]
  IC50: 20 to 50 µM

## CCOC(=O)c1sc2c(c1C)c(=O)n(C(C)(C)C(N)=O)c(=O)n2C[C@@H](OC(C)C)c1ccccc1 [I-114, ethyl 3-(1-carbamoyl-1-methylethyl)-5-methyl-2,4-dioxo-1-[(2S)-2-phenyl-2-(propan-2-yloxy)ethyl]-1H,2H,3H,4H-thieno[2,3-d]pyrimidine-6-carboxylate]
  IC50: 20 to 50 µM

## Cc1c(-n2cccn2)sc2c1c(=O)n(C(C)(C)C(=O)O)c(=O)n2CCc1ccccc1 [I-116, 2-methyl-2-[5-methyl-2,4-dioxo-1-(2-phenylethyl)-6-(1H-pyrazol-1-yl)-1H,2H,3H,4H-thieno[2,3-d]pyrimidin-3-yl]propanoic acid]
  IC50: < 5 µM

## Cc1c(-c2ncco2)sc2c1c(=O)n(C(C)(C)C(=O)O)c(=O)n2CCc1ccccc1 [I-117, 2-methyl-2-[5-methyl-6-(1,3-oxazol-2-yl)-2,4-dioxo-1-(2-phenylethyl)-1H,2H,3H,34H-thieno[2,3-d]pyrimidin-3-yl]propanoic acid]
  IC50: < 5 µM

## Cc1c(-n2ccnc2)sc2c1c(=O)n(C(C)(C)C(=O)O)c(=O)n2CCc1ccccc1 [I-118, 2-[6-(1H-imidazol-1-yl)-5-methyl-2,4-dioxo-1-(2-phenylethyl)-1H,2H,3H,4H-thieno[2,3-d]pyrimidin-3-yl]-2-methylpropanoic acid]
  IC50: 20 to 50 µM

## Cc1c(-c2ncco2)sc2c1c(=O)n(C(C)(C)C(=O)O)c(=O)n2C[C@@H](OC(C)C)c1ccccc1 [I-120, 2-methyl-2-[5-methyl-6-(1,3-oxazol-2-yl)-2,4-dioxo-1-[(2S)-2-phenyl-2-(propan-2-yloxy)ethyl]-1H,2H,3H,4H-thieno[2,3-d]pyrimidin-3-yl]propanoic acid]
  IC50: 5 to 20 µM

## Cc1c(-n2nccn2)sc2c1c(=O)n(C(C)(C)C(=O)O)c(=O)n2CCc1ccccc1 [I-122, 2-methyl-2-[5-methyl-2,4-dioxo-1-(2-phenylethyl)-6-(2H-1,2,3-triazol-2-yl)-1H,2H,3H,4H-thieno[2,3-d]pyrimidin-3-yl]propanoic acid]
  IC50: < 1 µM

## CCOC(=O)c1sc2c(c1C)c(=O)n(C(C)(C)C(=O)O)c(=O)n2C[C@@H](OCC(C)C)c1ccccc1 [I-124, 2-[6-(ethoxycarbonyl)-5-methyl-1-[(2S)-2-(2-methylpropoxy)-2-phenylethyl]-2,4-dioxo-1H,2H,3H,4H-thieno[2,3-d]pyrimidin-3-yl]-2-methylpropanoic acid]
  IC50: 5 to 20 µM

## Cc1c(C2CCC2)sc2c1c(=O)n(C(C)(C)C(=O)O)c(=O)n2CCc1ccccc1 [I-125, 2-[6-cyclobutyl-5-methyl-2,4-dioxo-1-(2-phenylethyl)-1H,2H,3H,4H-thieno[2,3-d]pyrimidin-3-yl]-2-methylpropanoic acid]
  IC50: 5 to 20 µM

## CCOC(=O)c1sc2c(c1C)c(=O)n(C(C)(C)C(=O)O)c(=O)n2C[C@@H](OC(C)C)c1ccc(I)cc1 [I-126]
  IC50: 20 to 50 µM

## CCOC(=O)c1sc2c(c1C)c(=O)n(C(C)(C)C(=O)O)c(=O)n2C[C@H](OC(C)(C)C)c1ccccc1 [I-127, 2-[1-[(2R)-2-(tert-butoxy)-2-phenylethyl]-6-(ethoxycarbonyl)-5-methyl-2,4-dioxo-1H,2H,3H,4H-thieno[2,3-d]pyrimidin-3-yl]-2-methylpropanoic acid]
  IC50: 20 to 50 µM

## CCOC(=O)c1sc2c(c1C)c(=O)n(C(C)(C)C(=O)O)c(=O)n2C[C@@H](OC(C)(C)C)c1ccccc1 [I-128, 2-[1-[(2S)-2-(tert-butoxy)-2-phenylethyl]-6-(ethoxycarbonyl)-5-methyl-2,4-doxo-1H,2H,3H,4H-thieno[2,3-d]pyrimidin-3-yl]-2-methylpropanoic acid]
  IC50: 20 to 50 µM
